Patent US20150038707A1, “PROCESS FOR MAKING CGRP RECEPTOR ANTAGONISTS” (Merck Sharp & Dohme Corp., priority 2012, published 2015)

How the values were obtained:
[1] = test system: Ae. aegypti Houston strain (pyrethroid susceptible); assay: Toxicity assay on treated netting (Example 7), Houston strain; format: in vivo
Protocol: (§1) Several compounds were tested to determine their toxic effect on Ae. aegypti mosquitoes. Three mosquito strains were tested—Houston which is pyrethroid susceptible, That which is pyrethroid tolerant and Isla Mujer which is metabolically pyrethroid resistant.
(§2) The toxicity assay involved a single chamber to which treated netting was added. Twenty (20) mosquitoes were transferred to the chamber. After 1 hour, the number of knocked down mosquitoes was recorded and all mosquitoes were transferred to holding cartoons. The mosquitoes were given a 10% sucrose-soaked cotton ball and returned to the insectary. Mortaility was measured after 24 hours. A control assay using acetone-treated netting was used. Six replicates were performed at each treatment concentration.

[2] = test system: Ae. aegypti Thai strain (pyrethroid tolerant); assay: Toxicity assay on treated netting (Example 7), Thai strain; format: in vivo
Protocol: as §1, §2

[3] = test system: Ae. aegypti Isla mujeres strain (metabolically pyrethroid resistant); assay: Toxicity assay on treated netting (Example 7), Isla mujeres strain; format: in vivo
Protocol: as §1, §2

[4] = test system: KDR Resisant An. Gambiae; assay: Bottle toxicity assay (Example 8), knockdown resistant mosquitoes; format: in vivo, Anopheles gambiae; conditions: for KDR Resisant An. Gambiae (% dead (SE)): Strain Tested F123
Protocol: (§3) Several compounds were tested to determine their toxic effect on knockdown resistant Anopheles gambiae mosquitoes and susceptible mosquitoes. Acetone and different amounts of pesticides were added to 250 ml bottles. In one bottle, only acetone was added as a control. The bottles were rotated in all directions while uncapped until all acetone was evaporated and the insecticide was coated onto the inside surfaces of the bottle. A number of knockdown resistant Anopheles gambiae mosquitoes were added to the bottle. The number of dead mosquitoes was recorded at 1 hour and 24 hours.

[5] = test system: Susceptible An. Gambiae; assay: Bottle toxicity assay (Example 8), susceptible mosquitoes; format: in vivo, Anopheles gambiae; conditions: Strain Tested F123
Protocol: as §3

[6] = test system: female Aedes aegypti (Thailand strain) mosquitoes; assay: Contact irritancy assay on mosquitoes (Example 2); format: in vivo; conditions: netting treated at 0.0025-2.5 nmol/cm^2; for contact irritancy (FIG. 1): 10 minutes
Protocol: (§4) Four compounds of formula (I) were tested for contact irritancy (i.e., movement away from the source after physical contact) at low doses on female Aedes aegypti (Thailand strain) mosquitoes. The contact irritant response was determined by use of the contact irritant assay disclosed by Grieco et al. in “A New Classification System for the Actions of IRS Chemicals Traditionally Used for Malaria Control,” Plos One, Issue 8 (2007) (available at www.plosone.org). The assay used was a cylindrical assembly that included a metal treatment end to which 10 mosquitoes were introduced and a clear receiving chamber. The treatment end included a netting strip (nylon organdy) that was treated with the insecticide of interest at the relevant dose. A butterfly valve separated the treatment end from the remainder of the assembly.
(§5) Each composition was applied to the netting strip at a varied dose via a 1.5 ml acetone solution. Four (4) treatment concentrations were used—0.0025 nmol/cm^2, 0.025 nmol/cm^2, 0.25 nmol/cm^2 and 2.5 nmol/cm^2. Netting was allowed to dry for 15 minutes prior to placement in the cylinder. Control assays were performed with netting treated with acetone only.
(§6) For each run, 10 mosquitoes were transferred into the treatment end of the assembly and, after 30 seconds, the butterfly valve was opened. The valve was closed after 10 minutes and the number of mosquitoes in the clear end (i.e., the number of escaped mosquitoes) was tested.

[7] = test system: female Aedes aegypti (Thailand strain) mosquitoes; assay: Spatial repellency assay on mosquitoes (Example 3); format: in vivo; conditions: netting treated at 0.0025-2.5 nmol/cm^2
Protocol: (§7) The four compounds of formula I described in Example 2 were tested for spatial repellency (directed movement away from the chemical source without the insect making physical contact with the treated surface) at low doses on female Aedes aegypti (Thailand strain) mosquitoes. The spatial repellency response was determined by use of the spatial repellency assay disclosed by Grieco et al. in “A New Classification System for the Actions of IRS Chemicals Traditionally Used for Malaria Control” in Plos One, Issue 8 (2007) (available at www.plosone.org) which is incorporated herein by reference for all relevant and consistent purposes. The assay used was a cylindrical assembly that included a treatment chamber at one end and a control chamber at the other end. The treatment chamber included a netting strip (nylon organdy) that was treated with the insecticide of interest at the relevant dose. The treatment chamber and control chamber were connected by a clear cylinder and were separated from the clear cylinder by butterfly valves. Twenty (20) mosquitoes were introduced into the clear central chamber and the butterfly valves were opened after 30 seconds. After 10 minutes, the valves were closed and the number of mosquitoes in each chamber was counted.
The compositions were applied to the net strips by the same methods and at the same concentrations as described in Example 2 above. […]

[8] = test system: female Aedes aegypti (Thailand strain) mosquitoes; assay: Contact irritancy and spatial repellency screening (Example 4); format: in vivo; conditions: Dosage 25 nmol/cm^2; mapped with 3000 other compounds
Protocol: as §4, §7
Dosage was 25 nmol/cm^2. Several known compounds were also mapped for comparison—alphacypermethrin, cypermethrin, propoxur, bendiocarb, permethrin, SS220, DDT, deet and chlorpyrifos.

[9] = test system: Ae. Aegypti, That strain (pyrethroid tolerant); assay: Contact irritancy on pyrethroid tolerant mosquitoes (Example 5); format: in vivo
Protocol: as §4, §5, §6
(§8) The contact irritancy protocol of Example 2 was used to determine contact irritancy against mosquitoes (Ae. Aegypti) that had acquired metabolic resistance against pyrethroids. Alphacypermethrin and transfluthrin were also tested. Three mosquito strains were tested—Houston which is pyrethroid susceptible, That which is pyrethroid tolerant and Isla Mujer which is metabolically pyrethroid resistant.

[10] = test system: Ae. Aegypti, Isla Mujer strain (metabolically pyrethroid resistant); assay: Contact irritancy on metabolically resistant mosquitoes (Example 5); format: in vivo
Protocol: as §4, §5, §6, §8

[11] = test system: Ae. Aegypti strains Houston, That and Isla Mujer; assay: Spatial repellency on metabolically resistant mosquitoes (Example 6); format: in vivo
Protocol: as §7
The spatial repellency protocol of Example 3 was used to determine spatial repellency against mosquitoes (Ae. Aegypti) that had acquired metabolic resistance against pyrethroids. DDT and transfluthrin were also tested. Three mosquito strains were tested—Houston which is pyrethroid susceptible, That which is pyrethroid tolerant and Isla Mujer which is metabolically pyrethroid resistant.

[12] = test system: An. Vestitipennis; conditions: stated as identical to night one of compound 1405; cited from earlier work
[13] = Dose 0.025 nm/cm^2, Time 1 hour
[14] = Dose 0.025 nm/cm^2, Time 24 hours
[15] = Dose 0.25 nm/cm^2, Time 24 hours
[16] = Dose 2.5 nm/cm^2, Time 24 hours
[17] = Dose 0.0025 μg/bottle, Time 1 hour
[18] = Dose 0.0025 μg/bottle, Time 24 hours
[19] = Dose 0.025 μg/bottle, Time 1 hour
[20] = Dose 0.025 μg/bottle, Time 24 hours
[21] = Dose 0.25 μg/bottle, Time 1 hour
[22] = Dose 0.25 μg/bottle, Time 24 hours
[23] = Dose 2.5 μg/bottle, Time 1 hour
[24] = Dose 2.5 μg/bottle, Time 24 hours
[25] = Dose 0.05 nm/cm^2, Time 24 hours
[26] = Dose 0.0725 nm/cm^2, Time 1 hour
[27] = Dose 0.0725 nm/cm^2, Time 24 hours
[28] = Dose 0.1 nm/cm^2, Time 24 hours
[29] = Dose 0.125 nm/cm^2, Time 1 hour
[30] = Dose 0.125 nm/cm^2, Time 24 hours
[31] = Dose 0.2 nm/cm^2, Time 24 hours

SMILES: C/C=C/C1C(C(=O)OCc2c(F)c(F)c(COC)c(F)c2F)C1(C)C (stereo in doubt) [Metafluthrin, metafluthrin, reference compound]
- Houston (% dead (SE)) [1, 13]: 100%
- Houston (% dead (SE)) [1, 14]: 100%
- Houston (% dead (SE)) ([1]; Dose 0.25 nm/cm^2, Time 1 hour): 100%
- Houston (% dead (SE)) [1, 15]: 100%
- Houston (% dead (SE)) ([1]; Dose 2.5 nm/cm^2, Time 1 hour): 100%
- Houston (% dead (SE)) [1, 16]: 100%
- Thai (% dead (SE)) [2, 13]: 100%
- Thai (% dead (SE)) [2, 14]: 89.2%
- Thai (% dead (SE)) ([2]; Dose 0.25 nm/cm^2, Time 1 hour): 100%
- Thai (% dead (SE)) [2, 15]: 100%
- Thai (% dead (SE)) ([2]; Dose 2.5 nm/cm^2, Time 1 hour): 100%
- Thai (% dead (SE)) [2, 16]: 100%
- Isla mujeres (% dead (SE)) [3, 13]: 56.3%
- Isla mujeres (% dead (SE)) [3, 14]: 21.89%
- Isla mujeres (% dead (SE)) ([3]; Dose 0.25 nm/cm^2, Time 1 hour): 100%
- Isla mujeres (% dead (SE)) [3, 15]: 77.27%
- Isla mujeres (% dead (SE)) ([3]; Dose 2.5 nm/cm^2, Time 1 hour): 100%
- Isla mujeres (% dead (SE)) [3, 16]: 100%
- KDR Resisant An. Gambiae (% dead (SE)) [4, 17]: 10%
- KDR Resisant An. Gambiae (% dead (SE)) [4, 18]: 25%
- KDR Resisant An. Gambiae (% dead (SE)) [4, 19]: 47%
- KDR Resisant An. Gambiae (% dead (SE)) [4, 20]: 86%
- KDR Resisant An. Gambiae (% dead (SE)) [4, 21]: 100%
- KDR Resisant An. Gambiae (% dead (SE)) [4, 22]: 100%
- KDR Resisant An. Gambiae (% dead (SE)) [4, 23]: 100%
- KDR Resisant An. Gambiae (% dead (SE)) [4, 24]: 100%
- effectiveness against knockdown resistant strains ([4]; summary of Table 3): less effective
- Susceptible An. Gambiae (% dead (SE)) [5, 17]: 100%
- Susceptible An. Gambiae (% dead (SE)) [5, 18]: 86%
- Susceptible An. Gambiae (% dead (SE)) [5, 19]: 100%
- Susceptible An. Gambiae (% dead (SE)) [5, 20]: 100%
- Susceptible An. Gambiae (% dead (SE)) [5, 21]: 100%
- Susceptible An. Gambiae (% dead (SE)) [5, 22]: 100%
- Susceptible An. Gambiae (% dead (SE)) [5, 23]: 100%
- Susceptible An. Gambiae (% dead (SE)) [5, 24]: 100%

SMILES: CC1(C)C(C=C(F)F)C1C(=O)OCc1ccc(F)c(C(F)(F)F)c1F (centres unmarked) [Compound 1403]
- contact irritancy (FIG. 1) [6]: showed contact irritancy at relatively low doses
- spatial repellency, dose compared with DDT (FIG. 2) [7]: showed repellency at a lower dose than DDT
- contact irritancy and spatial repellency relative to screened compounds (FIG. 3) [8]: superior contact irritancy and spatial repellency relative to most screened compounds
- contact irritancy, tolerant strain (FIG. 4) [9]: contact irritants for tolerant strains
- contact irritancy, resistant strain (FIG. 4) [10]: effective in resistant strains
- spatial repellency, all strains (FIG. 5) [11]: spatial repellants for all strains
- Houston (% dead (SE)) [1, 13]: 11.76%
- Houston (% dead (SE)) [1, 14]: 15.57%
- Houston (% dead (SE)) ([1]; Dose 0.05 nm/cm^2, Time 1 hour): 51.3%
- Houston (% dead (SE)) [1, 25]: 41.18%
- Houston (% dead (SE)) [1, 26]: 100%
- Houston (% dead (SE)) [1, 27]: 100%
- Houston (% dead (SE)) ([1]; Dose 0.1 nm/cm^2, Time 1 hour): 100%
- Houston (% dead (SE)) [1, 28]: 100%
- Houston (% dead (SE)) [1, 29]: 100%
- Houston (% dead (SE)) [1, 30]: 100%
- Houston (% dead (SE)) ([1]; Dose 0.2 nm/cm^2, Time 1 hour): 100%
- Houston (% dead (SE)) [1, 31]: 100%
- Houston (% dead (SE)) ([1]; Dose 0.25 nm/cm^2, Time 1 hour): 100%
- Houston (% dead (SE)) [1, 15]: 100%
- Houston (% dead (SE)) ([1]; Dose 2.5 nm/cm^2, Time 1 hour): 100%
- Houston (% dead (SE)) [1, 16]: 100%
- Thai (% dead (SE)) [2, 13]: 15%
- Thai (% dead (SE)) [2, 14]: 0%
- Thai (% dead (SE)) ([2]; Dose 0.25 nm/cm^2, Time 1 hour): 100%
- Thai (% dead (SE)) [2, 15]: 100%
- Thai (% dead (SE)) ([2]; Dose 2.5 nm/cm^2, Time 1 hour): 100%
- Thai (% dead (SE)) [2, 16]: 100%
- Isla mujeres (% dead (SE)) [3, 13]: 0%
- Isla mujeres (% dead (SE)) [3, 14]: 1.58%
- Isla mujeres (% dead (SE)) ([3]; Dose 0.05 nm/cm^2, Time 1 hour): 0%
- Isla mujeres (% dead (SE)) [3, 25]: 5.93%
- Isla mujeres (% dead (SE)) [3, 26]: 0%
- Isla mujeres (% dead (SE)) [3, 27]: 3.70%
- Isla mujeres (% dead (SE)) ([3]; Dose 0.1 nm/cm^2, Time 1 hour): 0%
- Isla mujeres (% dead (SE)) [3, 28]: 5.00%
- Isla mujeres (% dead (SE)) [3, 29]: 0%
- Isla mujeres (% dead (SE)) [3, 30]: 6.00%
- Isla mujeres (% dead (SE)) ([3]; Dose 0.2 nm/cm^2, Time 1 hour): 70%
- Isla mujeres (% dead (SE)) [3, 31]: 20%
- Isla mujeres (% dead (SE)) ([3]; Dose 0.25 nm/cm^2, Time 1 hour): 100%
- Isla mujeres (% dead (SE)) [3, 15]: 100%
- Isla mujeres (% dead (SE)) ([3]; Dose 2.5 nm/cm^2, Time 1 hour): 100%
- Isla mujeres (% dead (SE)) [3, 16]: 100%
- toxicity to resistant populations compared with standard compounds ([3]; summary of Table 2): more toxic to resistant populations than permethrin, matfluthrin and transfluthrin

SMILES: CC(C)c1cccc(COC(=O)C2C(C=C(Cl)C(F)(F)F)C2(C)C)c1F (centres unmarked) [Compound 1415]
- contact irritancy, dose compared with alphacypermethrin (FIG. 1) [6]: showed contact irritancy at a lower dose than alphacypermethrin
- contact irritancy (FIG. 1) [6]: showed contact irritancy at relatively low doses
- contact irritancy and spatial repellency relative to screened compounds (FIG. 3) [8]: superior contact irritancy and spatial repellency relative to most screened compounds
- contact irritancy, tolerant strain (FIG. 4) [9]: contact irritants for tolerant strains
- spatial repellency, all strains (FIG. 5) [11]: spatial repellants for all strains

SMILES: Clc1ccc(C(c2ccc(Cl)cc2)C(Cl)(Cl)Cl)cc1 [DDT, dichlorodiphenyltrichloroethane]
- reduction in entering populations observed with DDT [12]: 97%
